Reference: patent publication US20170312296A1, “AGENTS FOR KILLING HIV-1-INFECTED CELLS AND APPLICATION THEREOF” (KAGOSHIMA UNIVERSITY, priority 2015, published 2017)

Legend:
[1] = test system: HIV-1-infected human peripheral blood mononuclear cells; assay: Cell viability (dye method) in HIV-1 chronically infected cell model derived from human peripheral blood mononuclear cells; settings: for effect on the cell death-inducing effect specific for HIV-1-infected cells due to entinostat: Example 2: combination with entinostat 0.5 μM after protease inhibitor pretreatment; for cell death-inducing effect specific for HIV-1-infected cells: Example 4: treatment after 11 days culture
Procedure: Healthy donor-derived peripheral blood mononuclear cells were infected with HIV-1 strain IIIB in vitro to prepare an HIV-1 chronically infected cell model derived from human peripheral blood mononuclear cells, and a combination effect of an HIV-1 protease inhibitor (NFV or SQV) and an HDAC inhibitor (entinostat or vorinostat) was examined.
After HIV-1 infection or pseudo-infection (=mock-infection), the cells were cultured for 7 days and treated with various concentrations of each HIV-1 protease inhibitor for 3 days. For 3 days thereafter, treatment was carried out using combinations of each HIV-1 protease inhibitor having the same concentration and each HDAC inhibitor. The cell viability in each sample was measured by a dye method, and the amount of HIV-1 produced, by an ELISA method (HIV-1 p24 Antigen ELISA). […]

HIV-1 strain IIIB [2] = assay: Amount of HIV-1 produced (HIV-1 p24 Antigen ELISA) in HIV-1-infected human peripheral blood mononuclear cells; assay type: cell-based
HIV-1 strain IIIB [3] = assay: Amount of HIV-1 produced (HIV-1 p24 Antigen ELISA) in HIV-1-infected CD4T; assay type: cell-based
Excerpt: (§1) In this Example, it was examined whether combined use with an HIV-1 reverse transcriptase inhibitor provided the same effect, by conducting a combination experiment with entinostat according to the experimental procedure shown in FIG. 13 using tenofovir (TFV) as one of the clinically most used HIV-1 reverse transcriptase inhibitors.
as §1, with “Then,” for “In this Example,”, “integrase” for “reverse transcriptase”, “effect” for “effect,”, “15” for “13”, “dolutegravir (DTG)” for “tenofovir (TFV)”

[4] = test system: HIV-1-infected CD4-positive T lymphocytes (CD4T); assay: Cell viability (dye method) in CD4T-derived HIV-1 chronically infected cell model; assay type: cell-based, human; settings: for effect on the cell death-inducing effect specific for HIV-1-infected cells due to entinostat: Example 6, CD4T, combination with entinostat; for cell death-inducing effect specific for HIV-1-infected cells in CD4T: Example 5: treated 4 days from day 3 or from day 7 after infection
Procedure: In this Example, the action of various HDAC inhibitors on HIV-1-infected CD4T was analyzed using CD4T purified from human peripheral blood mononuclear cells.
as §1
as §1, with “Then,” for “In this Example,”, “integrase” for “reverse transcriptase”, “effect” for “effect,”, “15” for “13”, “dolutegravir (DTG)” for “tenofovir (TFV)”

Cleaved caspase-3 = assay: Western blot of cleaved caspase-3 in CD4T; assay type: cell-based, human; settings: entinostat 0.5 μM
Procedure: (§2) The extracted protein was analyzed by a Western blot method.
(§3) The expression of each of Cleaved caspase-3 and Cleaved PARP was corrected with the expression of β-tublin as an internal control to make a graph.

Cleaved PARP = assay: Western blot of cleaved PARP in CD4T; assay type: cell-based, human
Procedure: as §2, §3

[5] = test system: HIV-1 latently infected cells (reservoir cells); settings: literature report (Johnstone 2002); cited from earlier work
[6] = test system: mock-infected human peripheral blood mononuclear cells; assay: Cell viability (dye method) of mock-infected human peripheral blood mononuclear cells; assay type: cell-based; settings: Example 4
Procedure: After HIV-1 infection or pseudo-infection (=mock-infection), the cells were cultured for 7 days and treated with various concentrations of each HIV-1 protease inhibitor for 3 days. For 3 days thereafter, treatment was carried out using combinations of each HIV-1 protease inhibitor having the same concentration and each HDAC inhibitor. The cell viability in each sample was measured by a dye method, and the amount of HIV-1 produced, by an ELISA method (HIV-1 p24 Antigen ELISA).
After HIV-1 infection or pseudo-infection (=mock-infection), culture was performed for 11 days, and for 3 days from day 12, the combined administration of each HIV-1 protease inhibitor having various concentrations and the HDAC inhibitor was carried out. The cell viability in each sample was measured by a dye method, and the amount of HIV-1 produced, by an ELISA method (HIV-1 p24 Antigen ELISA).
After HIV-1 infection or pseudo-infection (=mock-infection), the cells were cultured for 11 days and treated with various concentrations of each HDAC inhibitor. The cell viability in each sample was measured by a dye method, and the amount of HIV-1 produced, by an ELISA method (HIV-1 p24 Antigen ELISA).

[7] = test system: mock-infected CD4-positive T lymphocytes (CD4T); assay: Cell viability (dye method) of mock-infected CD4T; assay type: cell-based, human; settings: Example 5, CD4T
[8] = Example 2: protease inhibitor pretreatment 3 days, then combination 3 days, in the presence of entinostat of 0.5 μM
[9] = Example 3: simultaneous administration with entinostat, no pretreatment, 3 days from day 12

## CC(C)(C)NC(=O)[C@@H]1C[C@@H]2CCCC[C@@H]2CN1C[C@@H](O)[C@H](Cc1ccccc1)NC(=O)[C@H](CC(N)=O)NC(=O)c1ccc2ccccc2n1 [SQV, saquinavir]
[1]
  effect on the cell death-inducing effect specific for HIV-1-infected cells due to entinostat: did not affect
HIV-1 strain IIIB [2]; [8]
  HIV-1 production: concentration-dependently suppressed HIV-1 production

## CC(C)CN(C[C@@H](O)[C@H](Cc1ccccc1)NC(=O)O[C@H]1CO[C@H]2OCC[C@H]21)S(=O)(=O)c1ccc(N)cc1 [darunavir]
HIV-1 strain IIIB [2]; Example 3: simultaneous administration with entinostat
  concentration that strongly suppressed the increase in HIV-1 production due to entinostat: ≥ 100 nM
HIV-1 strain IIIB [2]; [9]
  HIV-1 production: suppressing HIV-1 production
HIV-1 strain IIIB [3]; Example 6: 100 nM, administered simultaneously with entinostat, CD4T
  activation of HIV-1 production by entinostat: strongly suppressing

## C[C@@H]1CCO[C@H]2Cn3cc(C(=O)NCc4ccc(F)cc4F)c(=O)c(O)c3C(=O)N12 [dolutegravir]
[4]
  effect on the cell death-inducing effect specific for HIV-1-infected cells due to entinostat: did not affect
HIV-1 strain IIIB [3]; Example 6, CD4T, in the absence of entinostat
  anti-HIV-1 effect: hardly had an anti-HIV-1 effect

## Nc1ccccc1NC(=O)c1ccc(CNC(=O)OCc2cccnc2)cc1 [entinostat]
[1]
  cell death-inducing effect specific for HIV-1-infected cells: cell death-inducing effect specific for HIV-1-infected cells
[1]; Homo sapiens, PBMC, read-out: cell viability of HIV-1-infected cells relative to cell viability of pseudo-infected (non-infected) cells
  viability at 0.5 µM: ~50%
HIV-1 strain IIIB [2]; entinostat alone
  effect of the HDAC inhibitor on HIV-1 production in infected cells: activates HIV-1 production
[4]
  cell death-inducing effect specific for HIV-1-infected cells in CD4T: cell death-inducing effect specific for HIV-1-infected cells
Cleaved caspase-3; 24 hours
  increase of cleaved caspase-3 in HIV-1-infected CD4T versus pseudo-infected CD4T: more marked
Cleaved caspase-3; 24 hours, pseudo-infected CD4T (Mock) and HIV-1-infected CD4T (HIV)
  activated form of caspase-3 (cleaved caspase-3) expression: increase
Cleaved caspase-3; 48 hours, pseudo-infected CD4T and HIV-1-infected CD4T
  increase in activated form of caspase-3: not observed
Cleaved PARP; entinostat 0.5 μM, 24 hours, pseudo-infected CD4T and HIV-1-infected CD4T
  cleaved PARP expression: increase in the cleaved PARP was observed
Cleaved PARP; entinostat, 48 hours, HIV-1-infected CD4T
  expression of PARP (cleaved): markedly increased
[5]
  activation of HIV-1 latently infected cells to induce HIV-1 production: activate HIV-1 latently infected cells

## Cc1c(O)cccc1C(=O)N[C@@H](CSc1ccccc1)[C@H](O)CN1C[C@H]2CCCC[C@H]2C[C@H]1C(=O)NC(C)(C)C [nelfinavir]
[1]
  effect on the cell death-inducing effect specific for HIV-1-infected cells due to entinostat: did not affect
HIV-1 strain IIIB [2]; [8]
  HIV-1 production: concentration-dependently suppressed HIV-1 production
HIV-1 strain IIIB [2]; [9]
  HIV-1 production: suppressing HIV-1 production

## C[C@H](Cn1cnc2c(N)ncnc21)OCP(=O)(O)O [tenofovir]
[4]
  effect on the cell death-inducing effect specific for HIV-1-infected cells due to entinostat: did not affect
HIV-1 strain IIIB [3]; Example 6, CD4T, irrespective of the presence or absence of entinostat
  concentration at which HIV-1 production was still not suppressed: > 1 µM

## O=C(CCCCCCC(=O)Nc1ccccc1)NO [vorinostat]
[4]
  cell death-inducing effect specific for HIV-1-infected cells in CD4T: no cell death-inducing effect specific for HIV-1-infected cells
[5]
  activation of HIV-1 latently infected cells to induce HIV-1 production: activate HIV-1 latently infected cells

## chidamide
[1]; Example 4
  cell death-inducing effect specific for HIV-1-infected cells compared with entinostat: weaker cell death-inducing effect
[1]
  cell death-inducing effect specific for HIV-1-infected cells: cell death-inducing effect specific for HIV-1-infected cells
[6]
  toxicity to mock-infected cells compared with entinostat: less toxic
[4]; Example 5, CD4T
  cell death-inducing effect against infected cells compared to entinostat: weaker cell death-inducing effect
[4]
  cell death-inducing effect specific for HIV-1-infected cells in CD4T: cell death-inducing effect specific for HIV-1-infected cells
[7]
  toxicity to mock-infected cells compared to entinostat: less toxic
